Measured values reported in ChEMBL document CHEMBL5038651, “Design, Synthesis, and Biological Evaluation of 2-((4-Bisarylmethyl-piperazin-1-yl)methyl)benzonitrile Derivatives as HCV Entry Inhibitors” (J Med Chem, 2022).
The source made the active and inactive calls. The rule behind the calls is not given here.

Columns and labels:
[1] = (§1) Cytotoxicity against human Huh7.5 cells assessed as reduction in cell viability incubated for 96 hrs by MTT assay; format: toxicity, cell-based, Huh-7.5; details: Huh7.5 cells
Hepatitis C virus [2] = test: Antiviral activity against HCV infected in human Huh7.5 cells incubated for 72 hrs by in-cell western assay; format: functional, organism-based, Hepacivirus hominis; details: Huh7.5, 72 h
[3] = Selectivity index, ratio of CC50 for cytotoxicity against human Huh7.5.1 cells to EC50 for antiviral activity against HCV infected in human Huh7.5.1 cells; format: toxicity, cell-based
Hepacivirus hominis = test: Binding affinity to HCV E1 protein at 12.5 to 200 uM by SPR analysis; details: dose 12.5-200 µM
[4] = MRT in Sprague-Dawley rat at 15 mg/kg, po administered as single dose measured upto 24 hrs by LC-MS/MS analysis; format: ADME, organism-based; details: in vivo
[5] = AUC (0 to infinity) in Sprague-Dawley rat at 15 mg/kg, po administered as single dose measured upto 24 hrs by LC-MS/MS analysis; format: ADME, organism-based; set-up: route oral, dose 15 mg/kg, time <=24; details: in vivo
Hepatitis C virus [6] = test: Antiviral activity against HCVcc infected in human Huh7.5 cells assessed as inhibition of viral replication; format: functional, organism-based, Hepacivirus hominis
Hepatitis C virus [7] = test: Antiviral activity against HCV infected in human Huh7.5 cells carrying HCV subgenomic replicons assessed as inhibition of viral replication; format: functional, organism-based, Hepacivirus hominis
[8] = Cytotoxicity against human Huh7.5 cells infected with HCVcc assessed as reduction in cell viability incubated for 96 hrs by MTT assay; format: toxicity, cell-based, Huh-7.5
[9] = Cytotoxicity against human Huh7.5 cells carrying HCV subgenomic replicons assessed as reduction in cell viability incubated for 96 hrs by MTT assay; format: toxicity, cell-based, Huh-7.5
[10] = Half life in Sprague-Dawley rat at 15 mg/kg, po administered as single dose measured upto 24 hrs by LC-MS/MS analysis; format: ADME, organism-based; details: in vivo
[11] = Tmax in Sprague-Dawley rat at 15 mg/kg, po administered as single dose measured upto 24 hrs by LC-MS/MS analysis; format: ADME, organism-based; details: in vivo
[12] = Cmax in Sprague-Dawley rat at 15 mg/kg, po administered as single dose measured upto 24 hrs by LC-MS/MS analysis; format: ADME, organism-based; set-up: route oral, dose 15 mg/kg, time <=24; details: in vivo
[13] = Plasma concentration in Sprague-Dawley rat at 15 mg/kg, po administered as single dose measured up to 24 hrs by LC-MS/MS analysis; format: ADME, organism-based
[14] = target: Histamine H1 receptor (Homo sapiens) (UniProt P35367); test: Antagonist activity against H1 receptor (unknown origin) expressed in HEK cells at 1 uM relative to control; format: functional, cell-based
Chain of Histamine H1 receptor (Homo sapiens) (P35367 whole entry): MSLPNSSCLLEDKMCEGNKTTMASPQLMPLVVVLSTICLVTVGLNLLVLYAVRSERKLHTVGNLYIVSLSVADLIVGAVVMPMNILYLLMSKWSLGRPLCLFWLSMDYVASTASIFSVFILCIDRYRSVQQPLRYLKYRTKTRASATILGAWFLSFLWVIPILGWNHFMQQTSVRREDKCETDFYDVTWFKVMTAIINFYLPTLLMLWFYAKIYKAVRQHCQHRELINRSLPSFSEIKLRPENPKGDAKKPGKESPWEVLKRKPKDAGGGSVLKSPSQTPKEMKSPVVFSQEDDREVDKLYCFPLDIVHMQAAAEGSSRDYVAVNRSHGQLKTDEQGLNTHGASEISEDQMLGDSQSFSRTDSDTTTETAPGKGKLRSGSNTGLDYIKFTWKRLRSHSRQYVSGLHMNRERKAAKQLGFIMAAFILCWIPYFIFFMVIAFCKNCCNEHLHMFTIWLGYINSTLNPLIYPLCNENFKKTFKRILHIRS

Hepatitis C virus [15] = test: Antiviral activity against HCV infected in human Huh7.5 cells assessed as reduction in viral RNA level preincubated for 2 hrs prior to viral infection and measured after 72 hrs by RT-qPCR analysis; format: functional, organism-based; details: Hepacivirus hominis, time 74.0 hrs
Hepatitis C virus [16] = test: Antiviral activity against HCV infected in human Huh7.5 cells assessed as reduction in viral RNA level measured after 72 hrs by RT-qPCR analysis; format: functional, organism-based; details: Hepacivirus hominis
Hepatitis C virus [17] = test: Antiviral activity against HCV infected in human Huh7.5 cells assessed as reduction in HCV core protein expression measured after 72 hrs by Western blotting analysis; format: functional, organism-based; details: Hepacivirus hominis
Hepatitis C virus [18] = test: Antiviral activity against HCV infected in human Huh7.5 cells assessed as reduction in HCV core protein expression preincubated for 2 hrs followed by viral infection and measured after 72 hrs by Western blotting analysis; format: functional, organism-based; details: Hepacivirus hominis, time 74.0 hrs
Hepatitis C virus [19] = test: Antiviral activity against HCV infected in human Huh7.5 cells assessed as reduction in HCV core protein expression pre-infected with virus for 2 hrs followed by compound addition and measured after 72 hrs by Western blotting analysis; format: functional, organism-based; details: Hepacivirus hominis
Hepatitis C virus [20] = test: Antiviral activity against HCV infected in human Huh7.5 cells carrying HCV subgenomic replicons assessed as inhibition of viral replication at 1.4 uM; format: functional, organism-based; details: Hepacivirus hominis
Hepatitis C virus [21] = test: Antiviral activity against HCV infected in human Huh7.5 cells assessed as reduction in HCV core protein expression at 6.4 nM incubated for 72 hrs by in-cell western assay; format: functional, organism-based; details: Hepacivirus hominis
Hepatitis C virus [22] = test: Antiviral activity against HCV infected in human Huh7.5 cells assessed as reduction in viral RNA level pre-infected with virus for 2 hrs followed by compound addition and measured after 72 hrs by RT-qPCR analysis; format: functional, organism-based; details: Hepacivirus hominis
[23] = Selectivity index, ratio of CC50 for cytotoxicity against human Huh7.5 cells infected with HCVcc to EC50 for antiviral activity against HCVcc infected in human Huh7.5 cells; format: toxicity, cell-based; details: read-out: Ratio CC50/EC50
Huh-7.5 = test: as §1; format: toxicity, cell-based; details: huh-7.5, 96 h, 96 h

Row | SMILES | CC50 at 96 h [1] [nM] | EC50 (Hepatitis C virus [2]) [nM] | selectivity ratio ([3]; read-out: Ratio CC50/EC50) | further results
1 | CC(c1ccccc1)N1CCN(Cc2cc(N3CCCN(C)CC3)ccc2C#N)CC1 (configuration not stated) | 31300 | 956 | 33 | –
2 | CN(C)CCN(C)c1ccc(C#N)c(CN2CCN(C(c3ccc(F)cc3)c3ccc(F)cc3)CC2)c1 | 7810 | 8 | 976 | Activity (Hepacivirus hominis): Active
3 | CN1CCCN(c2ccc(C#N)c(CN3CCN(C(c4ccccc4)c4ccc(Cl)cc4)CC3)c2)CC1 (configuration not stated) | 7340 | 4 | 1930 | MRT [4]: 8.59 h; AUC(0-inf) [5]: 848 ng·h/mL; EC50 (Hepatitis C virus [6]): 3.33 nM; EC50 (Hepatitis C virus [7]): > 1600 nM; CC50 at 96 h [8]: 3720 nM; CC50 at 96 h [9]: 5220 nM; half-life [10]: 4.87 h; Tmax [11]: 5.33 h; Cmax [12]: 97.9 ng/mL; concentration at 24 h [13]: 6.06 ng/mL; Activity (Hepacivirus hominis): Active; Activity [14]: inactive; Activity (Hepatitis C virus [15]): inactive; Activity (Hepatitis C virus [16]): inactive; Activity (Hepatitis C virus [17]): Active; Activity (Hepatitis C virus [18]): inactive; Activity (Hepatitis C virus [19]): Active; Activity (Hepatitis C virus [20]): inactive; Activity (Hepatitis C virus [21]): Active; Activity (Hepatitis C virus [22]): Active
4 | COCCOc1ccc(C#N)c(CN2CCN(C(c3ccc(F)cc3)c3ccc(F)cc3)CC2)c1 | 6450 | > 20000 | – | –
5 | CN(C)CCN(C)c1ccc(C#N)c(CN2CCN([C@@H](c3ccccc3)c3ccc(Cl)cc3)CC2)c1 | 8780 | 16 | 549 | –
6 | CNCCN(C)CCN(C)c1ccc(C#N)c(CN2CCN(C(c3ccccc3)c3ccc(Cl)cc3)CC2)c1 (configuration not stated) | 4710 | 95 | 49 | –
7 | N#Cc1ccc(NCCCn2ccnc2)cc1CN1CCN(C(c2ccc(F)cc2)c2ccc(F)cc2)CC1 | 5890 | 162 | 36 | –
8 | CN(C)CCN(C)c1ccc(C#N)c(CN2CCN(C(c3ccccc3)c3ccccc3)CC2)c1 | > 20000 | 45 | > 444 | –
9 | CN1CCN(C(c2ccccc2)c2ccc(Cl)cc2)CC1 (configuration not stated) [CHLORCYCLIZINE] | – | – | – | EC50 (Hepatitis C virus [6]): 67.6 nM; EC50 (Hepatitis C virus [7]): > 1600 nM; CC50 at 96 h [8]: 30800 nM; CC50 at 96 h [9]: 30200 nM; inhibition ([14]; filed as antagonist): 99%; selectivity ratio [23]: 456; Activity (Hepatitis C virus [21]): inactive
10 | COCCOc1ccc(C#N)c(CN2CCN(c3ccc(C(F)(F)F)cc3)CC2)c1 | 2970 | 1520 | – | –
11 | CN(C)CCN(C)CCN(C)c1ccc(C#N)c(CN2CCN(C(c3ccccc3)c3ccc(Cl)cc3)CC2)c1 (configuration not stated) | 6340 | 73 | 87 | –
12 | N#Cc1ccc(NCCCn2ccnc2)cc1CN1CCN(C(c2ccccc2)c2ccccc2)CC1 | > 20000 | 243 | > 82 | –
13 | N#Cc1ccc(NCCCn2ccnc2)cc1CN1CCN(C(c2ccc(Cl)cc2)c2ccc(Cl)cc2)CC1 | > 20000 | 110 | > 182 | –
14 | CN(C)CCN(C)c1ccc(C#N)c(CN2CCN(c3ccc(Cl)cc3)CC2)c1 | 21200 | 175 | > 81 | CC50 (Huh-7.5): > 20000 nM; selectivity ratio ([3]; read-out: Ratio): > 114; EC50 (Hepatitis C virus [6]): 260 nM; EC50 (Hepatitis C virus [7]): > 1600 nM; CC50 at 96 h [8]: 18800 nM; CC50 at 96 h [9]: 121000 nM; Activity (Hepacivirus hominis): Active; Activity [14]: inactive; selectivity ratio [23]: 72; Activity (Hepatitis C virus [21]): inactive
15 | CC(C)OC(=O)[C@H](C)N[P@](=O)(OC[C@H]1O[C@@H](n2ccc(=O)[nH]c2=O)[C@](C)(F)[C@@H]1O)Oc1ccccc1 [SOFOSBUVIR] | > 200000 | 82 | > 2440 | selectivity ratio ([3]; read-out: Ratio): > 3280; EC50 (Hepatitis C virus [6]): 129 nM; EC50 (Hepatitis C virus [7]): 180 nM; CC50 at 96 h [8]: 171000 nM; CC50 at 96 h [9]: 121000 nM; Activity (Hepacivirus hominis): inactive; selectivity ratio [23]: 1330; Activity (Hepatitis C virus [21]): inactive
16 | CN(C)CCN(C)c1ccc(C#N)c(CN2CCN(c3ccc(C(F)(F)F)cc3)CC2)c1 | 13200 | 13 | 1010 | –
17 | CN(C)CCN(C)c1ccc(C#N)c(CN2CCN(Cc3ccc(Cl)cc3)CC2)c1 | 18100 | 1040 | 17 | –
